Legend:
Assay type in all cases: in vivo, rat
[1] = test system: SD male rats, hypoxia (the oxygen content was 11%) treatment; assay: Blood gas analysis of femoral artery blood in hypoxia-treated rats
Protocol: 2. Animal model: SPF-grade SD male rats, 220-240 g of the weight, and hypoxia (the oxygen content was 11%) treatment. 3. Experimental grouping: a hypoxia treatment control group, there were 4 rats in each group; and a hypoxia treatment administration group, there were 4 rats in each group. 4. Administration mode: before the hypoxia treatment, a single intravenous injection was administered to each rat in the hypoxia treatment administration group. 5. […] 2. Animal model: SPF-grade SD male rats, 220-240 g of the weight, and hypoxia (the oxygen content was 11%) treatment. 3. Experimental grouping: a hypoxia treatment control group, there were 4 rats in each group; and a hypoxia treatment administration group, there were 4 rats in each group. 4. Administration mode: before the hypoxia treatment, a single intravenous injection was administered to each rat in the hypoxia treatment administration group. 5. […] 2. Animal model: SPF-grade SD male rats, 220-240 g of the weight, and hypoxia (the oxygen content was 11%) treatment. 3. Experimental grouping: a hypoxia treatment control group, there were 4 rats in each group; and a hypoxia treatment administration group, there were 4 rats in each group. 4. Administration mode: single gavage administration of each rat in the hypoxic treatment group prior to hypoxic treatment. 5. […] 2. Animal model: SPF-grade SD male rats, 220-240 g of the weight, and hypoxia (the oxygen content was 11%) treatment. 3. Experimental grouping: a hypoxia treatment control group, there were 4 rats in each group; and a hypoxia treatment administration group, there were 4 rats in each group. 4. Administration mode: before the hypoxia treatment, a single intravenous injection was administered to each rat in the hypoxia treatment administration group. 5. […] 2. Animal model: SPF-grade SD male rats, 220-240 g of the weight, and hypoxia (the oxygen content was 11%) treatment. 3. Experimental grouping: a hypoxia treatment control group, there were 4 rats in each group; and a hypoxia treatment administration group, there were 4 rats in each group. 4. Administration mode: before the hypoxia treatment, a single intravenous injection was administered to each rat in the hypoxia treatment administration group. 5. […]

[2] = test system: SD male rats, hypoxia (the oxygen content was 11%) treatment; assay: Respiratory rate evaluated during blood collection in hypoxia-treated rats; details: p<0.05
Protocol: 2. Animal model: SPF-grade SD male rats, 220-240 g of the weight, and hypoxia (the oxygen content was 11%) treatment. 4. Administration mode: before the hypoxia treatment, a single intravenous injection was administered to each rat in the hypoxia treatment administration group. 6. Respiratory rate: the rat respiratory rate was evaluated during blood collection. 2. Animal model: SPF-grade SD male rats, 220-240 g of the weight, and hypoxia (the oxygen content was 11%) treatment. 4. Administration mode: before the hypoxia treatment, a single intravenous injection was administered to each rat in the hypoxia treatment administration group. 6. Respiratory rate: the rat respiratory rate was evaluated during blood collection. 2. Animal model: SPF-grade SD male rats, 220-240 g of the weight, and hypoxia (the oxygen content was 11%) treatment. 4. Administration mode: single gavage administration of each rat in the hypoxic treatment group prior to hypoxic treatment. 6. Respiratory rate: the rat respiratory rate was evaluated during blood collection. 2. Animal model: SPF-grade SD male rats, 220-240 g of the weight, and hypoxia (the oxygen content was 11%) treatment. 4. Administration mode: before the hypoxia treatment, a single intravenous injection was administered to each rat in the hypoxia treatment administration group. 2. Animal model: SPF-grade SD male rats, 220-240 g of the weight, and hypoxia (the oxygen content was 11%) treatment. 4. Administration mode: before the hypoxia treatment, a single intravenous injection was administered to each rat in the hypoxia treatment administration group. 6. Respiratory rate: the rat respiratory rate was evaluated during blood collection.

[3] = test system: lung tissues of SD rats, hypoxia (the oxygen content was 11%) treatment; assay: H&E staining / pathological analysis of lung tissue paraffin sections after hypoxia treatment; details: 1 mg/kg single intravenous injection, after 24 h of hypoxia treatment
Protocol: 2. Animal model: SPF-grade SD male rats, 220-240 g of the weight, and hypoxia (the oxygen content was 11%) treatment. 4. Administration mode: before the hypoxia treatment, a single intravenous injection was administered to each rat in the hypoxia treatment administration group. 7. Hematoxylin-eosin (H&E) staining: Lung tissues of the hypoxia treatment (24 h) control group and the hypoxia treatment (24 h) administration group (dose: 1 mg/kg) were taken for paraffin section preparation, staining, and case analysis. 1) Paraffin sections were dewaxed to water: the sections were sequentially placed in xylene I for 20 min, xylene II for 20 min, anhydrous ethanol I for 5 min, anhydrous ethanol II for 5 min, and 75% alcohol for 5 min, and finally washed with tap water. 2) Hematoxylin staining: the sections were placed in hematoxylin staining solution and stained for 3-5 min, then washed with the tap water, and differentiated with differentiation solution, then washed with the tap water. It returned to blue by blue returning solution, and finally it was washed with running water. 3) Eosin staining: the sections were sequentially dehydrated with 85% and 95% of gradient alcohol for 5 min respectively, and placed in eosin staining solution and stained for 5 min. […]

## C=CCc1cc(N)c(O)c(-c2ccc(O)c(CC=C)c2)c1 [Compound 1, 3′, 5-diallyl-3-amino-[1,1′-biphenyl]-2,4′-diol]
[1]; 0.58 mg/kg single intravenous injection before hypoxia, after 24 h of hypoxia treatment, p=0.0012
  blood oxygen partial pressure (PO2) vs control group: significantly higher than those of the control group
[1]; 0.58 mg/kg single intravenous injection before hypoxia, after 24 h of hypoxia treatment, p=0.019
  blood oxygen saturation (SO2) vs control group: significantly higher than those of the control group
[2]; 0.58 mg/kg single intravenous injection, after 24 h of hypoxia treatment
  respiratory rate (RR) vs control group: lower than that of the control group, and the different was significant

## C=CCc1cc(NC(=O)[C@@H](N)CCCCN)c(O)c(-c2ccc(O)c(CC=C)c2)c1.Cl.Cl [Compound 2, (S)-2,6-diamino-N-(3′,5-diallyl-2,4′-dihydroxy-[1,1′-biphenyl]-3-yl) hexanamide dihydrochloride]
[1]; 0.25 mg/kg single intravenous injection, after 1 h of hypoxia treatment, p=0.023
  blood oxygen saturation (SO2) vs control group: higher than that of the control group, and the difference was significant
[1]; 0.25 mg/kg single intravenous injection, after 1 h of hypoxia treatment, p=0.059
  blood oxygen partial pressure (PO2) vs control group: higher than that of the control group, but the difference was not significant
[1]; 0.25 mg/kg single intravenous injection, after 6 h of hypoxia treatment, p=0.015
  blood oxygen saturation (SO2) vs control group: higher than those of the control group, and the difference was significant
[1]; 0.25 mg/kg single intravenous injection, after 6 h of hypoxia treatment, p=0.018
  blood oxygen partial pressure (PO2) vs control group: higher than those of the control group, and the difference was significant
[1]; 1 mg/kg single intravenous injection, after 6 h of hypoxia treatment, p=0.0012
  blood oxygen saturation (SO2) vs control group: higher than that of the control group, and the difference was significant
[1]; 1 mg/kg single intravenous injection, after 6 h of hypoxia treatment, p=0.003
  blood oxygen partial pressure (PO2) vs control group: higher than that of the control group, and the difference was significant
[1]; 1 mg/kg single intravenous injection, after 24 h of hypoxia treatment, p=0.001
  blood oxygen saturation (SO2) vs control group: higher than those of the control group, and the difference was significant
[1]; 1 mg/kg single intravenous injection, after 24 h of hypoxia treatment, p=0.0012
  blood oxygen partial pressure (PO2) vs control group: higher than those of the control group, and the difference was significant
[1]; 40 mg/kg single gavage (intragastric) administration, after 24 h of hypoxia treatment, p=0.016
  blood oxygen saturation (SO2) vs control group: higher than those of the control group, and the difference was significant
[1]; 40 mg/kg single gavage (intragastric) administration, after 24 h of hypoxia treatment, p=0.036
  blood oxygen partial pressure (PO2) vs control group: higher than those of the control group, and the difference was significant
[2]; 1 mg/kg single intravenous injection, after 6 h of hypoxia treatment
  respiratory rate (RR) vs control group: lower than that of the control group, and the difference was significant
[2]; 1 mg/kg single intravenous injection, after 24 h of hypoxia treatment
  respiratory rate (RR) vs control group: lower than that of the control group, and the difference was significant
[2]; 40 mg/kg single gavage (intragastric) administration, after 24 h of hypoxia treatment
  respiratory rate (RR) vs control group: lower than that of the control group, and the difference was significant
[3]
  lung tissue injuries (H&E pathological analysis) vs control group: able to alleviate the tissue injuries caused by hypoxia (anoxia)

## C=CCc1cc(NC(=O)[C@@H](N)CCSC)c(O)c(-c2ccc(O)c(CC=C)c2)c1.Cl [Compound 3, (S)-2-amino-N-(3′,5-diallyl-2,4′-dihydroxy-[1,1′-biphenyl]-3-yl)-4-(methylthio) butanamide hydrochloride]
[1]; 0.93 mg/kg single intravenous injection, after 24 h of hypoxia treatment, p=0.06
  blood oxygen saturation (SO2) vs control group: higher than that of the control group
[2]; 0.93 mg/kg single intravenous injection, after 24 h of hypoxia treatment
  respiratory rate (RR) vs control group: lower than that of the control group, and the difference was significant

## C=CCc1cc(NC(C)=O)c(O)c(-c2ccc(O)c(CC=C)c2)c1 [Compound 4, N-(3′,5-diallyl-2,4′-dihydroxy-[1,1′-biphenyl]-3-yl) acetamide]
[1]; 0.67 mg/kg single intravenous injection, after 24 h of hypoxia treatment, p=0.0023
  blood oxygen saturation (SO2) vs control group: higher than those of the control group
[1]; 0.67 mg/kg single intravenous injection, after 24 h of hypoxia treatment, p=0.023
  blood oxygen partial pressure (PO2) vs control group: higher than those of the control group
[2]; 0.67 mg/kg single intravenous injection, after 24 h of hypoxia treatment
  respiratory rate (RR) vs control group: lower than that of the control group, and the difference was significant

Source: patent publication US20250000819A1, “Anti-hypoxic/anoxic injury use of a magnolol and/or honokiol aromatic ring amino-substituted derivative, and a pharmaceutical composition” (BEIJING HONGHUI MEDITECH CO., LTD., priority 2021, published 2025)
